Calls of active or inactive are those of the source. The calls are words filed in the database; no cut-off is given here.
Experiments:
DBTRG-05MG [1] = assay: Induction of cell cycle arrest in human DBTRG-05MG cells assessed as CyclinD1 expression at 206 uM after 48 hrs by Western blot analysis (reference value: 1); assay type: functional
DBTRG-05MG [2] = assay: Induction of apoptosis in human DBTRG-05MG cells assessed as increase in DNA fragmentation at 206 uM after 48 hrs by TUNEL assay; assay type: functional, cell-based
RG2 [3] = assay: Induction of DNA damage in rat RG2 cells assessed as H2A.X phosphorylation at ser139 at 206 uM after 48 hrs by Western blot analysis (reference value: 1); assay type: functional
RG2 [4] = assay: Induction of cell cycle arrest in rat RG2 cells assessed as CyclinA expression at 206 uM after 48 hrs by Western blot analysis (reference value: 1); assay type: functional
DBTRG-05MG [5] = assay: Induction of apoptosis in human DBTRG-05MG cells assessed as phosphorylated caspace-3 expression at 206 uM after 48 hrs by Western blot analysis (reference value: 1); assay type: functional
DBTRG-05MG [6] = assay: Induction of apoptosis in human DBTRG-05MG cells assessed as phosphorylated caspace-9 expression at 206 uM after 48 hrs by Western blot analysis (reference value: 1); assay type: functional
RG2 [7] = assay: Inhibition of AKT phosphorylation at S473 residues in rat RG2 cells at 112.4uM after 48 hrs by Western blot analysis; assay type: cell-based
[8] = Effect on p38 expression in human DBTRG-05MG cells at 112.4uM after 48 hrs in presence of TMZ by Western blot analysis (reference value: 1); assay type: functional
DBTRG-05MG [9] = assay: Induction of apoptosis in human DBTRG-05MG cells assessed as increase in apoptotic body formation at 112.4 uM after 48 hrs by TUNEL assay; assay type: functional, cell-based
[10] = Synergistic cytotoxicity against rat CTX TNA2 cells assessed as combination index at 89.9 uM after 48 hrs in presence of 412.1 uM TMZ by MTT assay; assay type: cell-based; conditions: ctx tna2, 48 h
RG2 [11] = assay: Induction of cell cycle arrest in rat RG2 cells assessed as accumulation at G2/M phase at 112.4 uM after 6 hrs by propidium iodide staining based flow cytometric analysis (reference value: 20.04 +/- 0.55%); assay type: functional
DBTRG-05MG [12] = assay: Induction of DNA damage in human DBTRG-05MG cells assessed as H2A.X phosphorylation at ser139 residues at 112.4 uM after 48 hrs by Western blot analysis (reference value: 1); assay type: functional
RG2 [13] = assay: Synergistic cytotoxicity against rat RG2 cells assessed as combination index at 134.9 uM after 48 hrs in presence of 515.1 uM TMZ by MTT assay; assay type: functional
RG2 [14] = assay: Inhibition of ERK phosphorylation at Tyr204 residues in rat RG2 cells at 112.4uM after 48 hrs in presence of TMZ by Western blot analysis (reference value: 1); assay type: cell-based
DBTRG-05MG [15] = assay: Synergistic cytotoxicity against human DBTRG-05MG cells assessed as combination index at 112.4 uM after 48 hrs in presence of 206 uM TMZ by MTT assay; assay type: functional

Structure (SMILES) | fold change (FC) (DBTRG-05MG [1]) | Activity (DBTRG-05MG [2]) | fold change (FC) (RG2 [3]) | fold change (FC) (RG2 [4]) | fold change (FC) (DBTRG-05MG [5]) | fold change (FC) (DBTRG-05MG [6]) | fold change (FC) (RG2 [7]) | fold change (FC) [8] | Activity (DBTRG-05MG [9]) | CI [10] | Activity (RG2 [11]) [%] | fold change (FC) (DBTRG-05MG [12]) | CI (RG2 [13]) | fold change (FC) (RG2 [14]) | CI (DBTRG-05MG [15])
Cn1nnc2c(C(N)=O)ncn2c1=O [TEMOZOLOMIDE] | 0.5 | Active | 1.1 | 1.9 | 1.3 | 0.3 |  |  |  |  |  |  |  |  | 
C[C@@H]1CC[C@H]2C(C)(C)[C@H]3C[C@@]12CC[C@@]3(C)O [CEDROL] |  |  |  |  |  |  | 0.8 | 0.8 | Active | 1.11 | 21.06 | 0.9 | 1.02 | 0.3 | 0.5

Reference: ChEMBL document CHEMBL4699511, “Cedrol, a Sesquiterpene Alcohol, Enhances the Anticancer Efficacy of Temozolomide in Attenuating Drug Resistance via Regulation of the DNA Damage Response and MGMT Expression” (J Nat Prod, 2020)
